According to ChEMBL document CHEMBL3272164, “Compounds with gastric antisecretory activity. 1. Phenoxyalkylamines” (J Med Chem, 1977):

Legend:
[1] = test system: Rattus norvegicus; assay: Inhibition of histamine-induced gastric acid secretion in rat in perfused stomach preparation at 5 mg/kg, iv after 15 mins; assay type: functional; conditions: 0.25 h
[2] = test system: Rattus norvegicus; assay: Inhibition of histamine-induced gastric acid secretion in rat in perfused stomach preparation at 0.078 mg/kg, iv after 15 mins; assay type: functional; conditions: 0.25 h
[3] = test system: Rattus norvegicus; assay: Inhibition of histamine-induced gastric acid secretion in iv dosed rat in perfused stomach preparation measured after 15 mins; assay type: functional; conditions: 0.25 h
[4] = test system: Rattus norvegicus; assay: Inhibition of histamine-induced gastric acid secretion in po dosed rat in ligated stomach preparation administered 1 hr prior to the ligation of the pylorus; assay type: functional
[5] = test system: Rattus norvegicus; assay: Inhibition of histamine-induced gastric acid secretion in rat in perfused stomach preparation at 1.25 mg/kg, iv after 15 mins; assay type: functional; conditions: 0.25 h
[6] = test system: Rattus norvegicus; assay: Toxicity in rat at 5 mg/kg, iv; assay type: organism-based; design: dose 5 mg/kg, route intravenous; conditions: in vivo
[7] = test system: Rattus norvegicus; assay: Inhibition of histamine-induced gastric acid secretion in rat in perfused stomach preparation at 2.5 mg/kg, iv after 15 mins; assay type: functional; conditions: 0.25 h

Structure (SMILES) | inhibition in vivo at 5 mg/kg [1] | other results
CCN(CC)CCOc1ccccc1CCC1CCCCC1 | 74% | –
C(=C/C12CC3CC(CC(C3)C1)C2)/c1ccccc1OCCN1CCCC1 | – | inhibition in vivo at 0.078 mg/kg [2]: 65%
c1ccc(OCCN2CCCC2)c(CCC2CCCCC2)c1 | 95% | –
CC(C)CN1CCN(CCOc2ccccc2CCC2CCCCC2)CC1 | 51% | –
CCCCCCCc1ccccc1OCCN(CC)CC | 82% | –
C(=C\C12CC3CC(CC(C3)C1)C2)/c1ccccc1OCCN1CCCC1.Cl | – | inhibition in vivo at 0.078 mg/kg [2]: 97%; ED50 [3]: 0.018 mg/kg; ED50 [4]: 1.5 mg/kg
CCN(CC)CCCOc1ccccc1CCC1CCCCC1 | 66% | –
c1ccc(OCCN2CCOCC2)c(CCC2CCCCC2)c1 | 10% | –
CN1CCN(CCOc2ccccc2CCC2CCCCC2)CC1 | 0% | –
CCCCCCc1ccccc1OCCN(CC)CC | 48% | –
c1ccc(N2CCN(CCOc3ccccc3CCC3CCCCC3)CC2)cc1 | 0% | –
CCN(CC)CCOc1ccc(C(C)=O)cc1CCC1CCCCC1 | 36% | –
CCCCCCCc1cc(C)ccc1OCCN(CC)CC | 61% | –
C(=C\C1CCCCC1)/c1ccccc1OCCN1CCCC1 | – | inhibition in vivo at 1.25 mg/kg [5]: 90%
c1ccc(OCCN2CCCC2)c(CCC23CC4CC(CC(C4)C2)C3)c1 | – | inhibition in vivo at 1.25 mg/kg [5]: 100%; inhibition in vivo at 0.078 mg/kg [2]: 83%
CCCCCCCc1ccccc1OCCCNC(C)C.O=C(O)C(=O)O | – | Activity [6]: Toxic
CC(C)N(CCOc1ccccc1CCC1CCCCC1)C(C)C | 32% | –

Structure (SMILES) | inhibition in vivo at 5 mg/kg [1] | other results
CCCCCCCCCc1ccccc1OCCN(CC)CC | 25% | –
CCCCC/C=C/c1ccccc1OCCN1CCCC1 | 71% | –
CN(C)CCOc1ccccc1/C=C/C12CC3CC(CC(C3)C1)C2 (trans isomer) | – | inhibition in vivo at 0.078 mg/kg [2]: 52%
CCN(CC)CCOc1ccc(OC)cc1CCC1CCCCC1 | 78% | –
CN(C)CCOc1ccccc1CCC1CCCCC1 | 29% | –
CCN(CC)CCOc1ccccc1CCCC(C)(C)C | 50% | –
CCN(CC)CCOc1ccc(F)cc1CCC1CCCCC1 | 95% | –
CCN(CC)CCOc1ccc(Cl)cc1CCC1CCCCC1 | 75% | –
CCN1CCCC(COc2ccccc2CCC2CCCCC2)C1 (centres undefined) | 57% | –
CN1CCCCC1COc1ccccc1CCC1CCCCC1 (centres undefined) | 100% | inhibition in vivo at 2.5 mg/kg [7]: 64%
CCCCCC/C=C/c1ccccc1OCCN1CCCC1 | 50% | –
CCN(CC)CCOc1ccccc1/C=C/C1CCCCC1 | – | inhibition in vivo at 1.25 mg/kg [5]: 82%
c1ccc(OCCN2CCCCC2)c(CCC2CCCCC2)c1 | – | inhibition in vivo at 2.5 mg/kg [7]: 50%
CCCN(CCC)CCOc1ccccc1CCC1CCCCC1 | 62% | –
CN(C)CCCOc1ccccc1CCC1CCCCC1 | 42% | –
CN/C(=N\CCSCc1nc[nH]c1C)NC#N [CIMETIDINE] | – | ED50 [3]: 0.3 mg/kg; ED50 [4]: 21.5 mg/kg
CCCCCCCc1ccccc1OCCNCC.O=C(O)C(=O)O | – | Activity [6]: Toxic
